Reference: publication PMC4301837, “Aldosterone synthase inhibition: cardiorenal protection in animal disease models and translation of hormonal effects to human subjects” (Journal of Translational Medicine, 2014)
Marks after values point to notes of the source that are not given here.

How the values were obtained:
[1] = system: Ang II-stimulated aldosterone release; parameters: method as in D. Rigel, personal communication; conditions: dogs; ref D. Rigel, personal communication; read-out: EC50, inhibition of Ang II-stimulated aldosterone release; cited from earlier work
[2] = dogs, ref D. Rigel, personal communication, cited from earlier work
[3] = system: human CYP11B2; parameters: method as in PMID 24899257; conditions: cited from earlier work
[4] = system: ACTH-stimulated aldosterone and corticosterone synthesis; parameters: method as in PMID 20354176; conditions: in vivo rat ACTH stimulation model; previous study; cited from earlier work
[5] = system: dTG rats with pre-established cardiorenal disease; assay: Survival study in older, enalapril-pre-treated dTG rats with established cardiorenal disease; assay type: in vivo, rat; conditions: male dTG rats, 10 mg/kg/day (40 mg/L in drinking water) from 3 to 8 weeks of age
[6] = system: healthy male volunteers; assay: Human pharmacodynamics, multiple-dose phase
[7] = system: ACTH-stimulated aldosterone, cortisol and precursors; assay: Human ACTH (cortisol) stimulation test, multiple-dose phase; assay type: in vivo
[8] = system: dTG rats overexpressing human renin and angiotensinogen; assay: Survival study in young dTG rats; assay type: in vivo, rat
[9] = system: dTG rats overexpressing human renin and angiotensinogen; assay type: in vivo
[10] = system: healthy male volunteers; assay: Human safety and tolerability; assay type: in vivo; conditions: single or multiple doses
[11] = eplerenone 100 mg once daily, ANCOVA mean
[12] = dTG rats, LCI699 3–100 mg/kg/day, eplerenone 30 mg/kg/day

## N#Cc1ccc([C@H]2CCCc3cncn32)cc1 [FAD286A, reference compound]
[1]
  EC50: 136 nM
[2]; 1 mg/kg oral dose
  oral bioavailability: […]
[2]
  half-life: […]
[3]; recombinant hamster fibroblasts expressing human CYP11B1 and CYP11B2, read-out: IC50, inhibition of aldosterone synthesis
  IC50: […]
[3]; recombinant hamster fibroblasts
  selectivity factor, inhibition of aldosterone vs cortisol synthesis: […]
[4]
  selectivity factor by exposure, aldosterone synthase over 11β-hydroxylase: […]

## CCOC(=O)[C@H](CCc1ccccc1)N[C@@H](C)C(=O)N1CCC[C@H]1C(=O)O [enalapril, reference compound]
[5]
  prolongation of median survival by pre-treatment: approximately 4 months

## COC(=O)[C@@H]1CC2=CC(=O)CC[C@]2(C)[C@@]23O[C@@H]2C[C@@]2(C)[C@@H](CC[C@@]24CCC(=O)O4)[C@H]13 [eplerenone, reference compound]
[6]; [11]
  Plasma potassium, Δ Day2 vs baseline (Day −1): +0.08 mEq/L
  Plasma potassium, Δ Day7 vs baseline (Day −1): −0.02 mEq/L
  Plasma potassium, Δ Day14 vs Day 7: −0.09 mEq/L
  Plasma sodium, Δ Day2 vs baseline (Day −1): −0.64 mEq/L
  Plasma sodium, Δ Day7 vs baseline (Day −1): +0.31 mEq/L
  Plasma sodium, Δ Day14 vs Day 7: −0.07 mEq/L
  Urinary potassium, Δ Day 1 vs baseline (Day −1): +5.2 mEq/24 h
  Urinary potassium, Δ Day 7 vs baseline (Day −1): +6.4 mEq/24 h
  Urinary potassium, Δ Day 14 vs Day 7: +3.7 mEq/24 h
  Urinary sodium, Δ Day 1 vs baseline (Day −1): +53.8‡ mEq/24 h
  Urinary sodium, Δ Day 7 vs baseline (Day −1): +16.2 mEq/24 h
  Urinary sodium, Δ Day 14 vs Day 7: −24.0 mEq/24 h
[6]; eplerenone 100 mg, Day 1
  effect on plasma aldosterone concentration: had no effect
  increase in 24 hour urinary aldosterone: 34%
[6]; eplerenone 100 mg, Day 7
  increase in 24 h urinary aldosterone levels: 118%
  increase in PRA from baseline: 92%
  increase in plasma aldosterone: 46%
[6]; eplerenone 100 mg, Day 14
  increase in 24 h urinary aldosterone levels: 161%
  increase in PRA: 130%
  increase in plasma aldosterone: 63%
[7]; LCI699 0.5 mg, eplerenone 100 mg
  effect on ACTH-stimulated 11-DOC levels: no significant effect
[7]; eplerenone 100 mg and lower doses of LCI699 (0.5, 1 mg), Day 6 or Day 13
  effect on cortisol precursors (ACTH-stimulated): no significant effect
[7]; eplerenone 100 mg, Day 6
  increase in ACTH-stimulated peak aldosterone levels: 63%
  increase in pre-ACTH aldosterone levels 2 h post-dose vs Day −2: 29%
[8]; young dTG rats
  maximum effective dose for prolongation of survival: 30 mg/kg
[8]; young dTG rats without established cardiorenal disease, P < 0.01
  doses at which survival was significantly prolonged: > 10 mg/kg/day
[8]; young dTG rats, dose–median survival curves
  maximum median survival time: 8.4 weeks
[9]; 30 mg/kg
  effect on BUN levels: no significant effect
  effect on LV fractional shortening: no significant effect
  effect on LV isovolumic relaxation time to RR (IVRT/RR) ratio: no significant effect
  effect on urine output: no significant effect
[9]; dTG rats treated 3 to 7 weeks of age, LCI699 3–100 mg/kg/day in drinking water, eplerenone 30 mg/kg/day in chow
  effect on plasma aldosterone concentration: had no effect
[9]; dTG rats, LCI699 3–100 mg/kg/day, eplerenone 30 mg/kg
  effect on myocardial cell size: reduced but did not normalize
[9]; [12]
  effect on mean arterial pressure: neither LCI699 nor eplerenone normalized arterial pressure
  effect on serum potassium: had no effect
  effect on urinary albumin excretion: slightly increased
  effect on urinary aldosterone excretion: significantly increased
[9]; dTG rats, LCI699 3–100 mg/kg/day, eplerenone 30 mg/kg, data not shown
  effect on LV weight: had no effect
[10]
  changes in supine systolic or diastolic blood pressure or heart rate compared with placebo: no consistent changes
